Data taken from paper doi:10.1101/2020.05.06.079947v2 (biorxiv, 2020).

Molecular target: PDEδ (Homo sapiens, UniProt O43924)
Assay: SPR
Assay type: binding

PDEδ, sequence (O43924 whole entry): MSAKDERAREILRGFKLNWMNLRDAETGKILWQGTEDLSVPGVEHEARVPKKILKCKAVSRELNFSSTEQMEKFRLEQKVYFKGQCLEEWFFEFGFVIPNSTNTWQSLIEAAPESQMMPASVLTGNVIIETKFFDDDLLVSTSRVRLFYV

Kd: 2.26 µM
Compound: O=C(COc1cccc2c1C(=O)N(C1CCC(=O)NC1=O)C2=O)NCCCOCCOCCOCCCNC(=O)c1cc(Oc2ccc(NC(=O)Nc3ccc(Cl)c(C(F)(F)F)c3)cc2)ccn1 (stereo not shown) [PROTAC T-S, 4-(4-(3-(4-chloro-3-(trifluoromethyl)phenyl)ureido)phenoxy)-N-(1-((2-(2,6-dioxopiperidin-3-yl)-1,3-dioxoisoindolin-4-l)oxy)-2-oxo-7,10,13-trioxa-3-azahexadecan-16-yl)picolinamide]
